Data: article PMC3248787 (Bioorganic & medicinal chemistry letters, 2011)

Legend:
trypsin = trypsin counter screen
purified HDAC8 = target: T1, purified HDAC8 (Homo sapiens, UniProt Q9BY41); experiment: small-molecule microarray; type: binding; conditions: SMM screen
T1 sequence (Q9BY41 1-377): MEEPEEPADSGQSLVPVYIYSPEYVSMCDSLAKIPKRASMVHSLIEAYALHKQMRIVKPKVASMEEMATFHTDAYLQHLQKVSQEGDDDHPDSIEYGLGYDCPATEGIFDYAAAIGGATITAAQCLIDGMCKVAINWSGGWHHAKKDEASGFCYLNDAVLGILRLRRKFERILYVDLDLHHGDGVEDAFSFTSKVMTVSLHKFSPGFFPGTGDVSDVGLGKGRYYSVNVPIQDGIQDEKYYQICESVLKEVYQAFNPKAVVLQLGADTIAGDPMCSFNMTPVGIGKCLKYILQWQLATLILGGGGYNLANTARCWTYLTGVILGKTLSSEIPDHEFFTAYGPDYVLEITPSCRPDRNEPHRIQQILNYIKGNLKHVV

[1] = system: acetylated lysine in HeLa cells; experiment: immunofluorescence, acetylated lysine in HeLa cells; type: cell-based; conditions: 16 h, normalized to DMSO control
[2] = system: acetylated α-tubulin in HeLa cells; experiment: immunofluorescence, acetylated α-tubulin in HeLa cells; type: cell-based; conditions: 16 h, normalized to DMSO control

Row | SMILES | interference with the proteolytic activity of trypsin (trypsin) | binding to purified HDAC8 on small-molecule microarray (purified HDAC8) | acetylated lysine level [1] | acetylated α-tubulin level [2]
1 | CC(=O)Nc1ccc(C(=O)CSc2nc(C)cc(O)n2)cc1 [Compound 7] | does not interfere with the proteolytic activity of trypsin | binder |  | 
2 | Nc1ccccc1NC(=O)c1ccc(CNC(=O)OCc2cccnc2)cc1 [MS-275] |  |  | increased global lysine acetylation | little change in tubulin acetylation
3 | O=C(CCCCCCC(=O)Nc1ccccc1)NO [SAHA, suberoylanilide hydroxamic acid] |  |  | increases both global lysine and α-tubulin acetylation levels | increases both global lysine and α-tubulin acetylation levels
